We go through three molecules from patent US5847159A, “1-[ω-(3,4-dihydro-2-naphthalenyl)alkyl]-cyclic amine derivatives, process for preparing the same, and pharmaceutical composition containing the same” (priority 1995, dated 1998).

The test system of data set [1] is Male ddY mice. Put plainly: in vivo. Conditions: p.o.; mouse. The text has this: (§1) Male ddY mice weighing 18-25 g were used in groups of 5-15 animals. Test compounds suspended in 0.5% aqueous tragacanth solution were given orally, and the mortality was investigated for 7 days following administration.
Data set [2] is described as follows: in vivo. As to conditions: in vivo, po; mouse; 7 days; read-out: Acute toxicity LD50.
Source text: as §1

Data set [3] relates to polysynaptic spinal reflex. Briefly: Inhibitory effect on polysynaptic spinal reflex. It counts as in vivo, Male Std-Wistar rats. As to conditions: rat; for Inhibitory effect on spinal reflex compared with Compound A: i.v.; for ED50: iv, read-out: Inhibitory effect on polysynaptic spinal reflex, ID50. The method, then: Inhibitory effect on polysynaptic spinal reflex
The experiment was performed according to the method of Itoh, et al. [Japan J. Parmacol.,23, 1125 (1982)]. Male Std-Wistar rats weighing 250-350 g were used in groups of 4-6 animals. Under anesthesia with combined i.p. injection of urethane (400 mg/kg) and α-chloralose (50 mg/kg), the rat fixed in a stereotaxic apparatus was clamped at the spine and tibial bane. A concentric needle electrode was inserted into the left gastrocnemius muscle, and the central end of the ipsilateral common peroneal nerve at the same side was supramaximally stimulated by an electrical stimulator (rectangular pulse,0.1 msec,0.1 Hz). Test compounds dissolved in distilled water were injected via a cannula inserted into the right femoral vein, and the evoked electromyogram was periodically recorded (2, 5, 10, 20 and 30 minutes after the injection). […] The results are shown in Table 5 along with the results of Experiments 3 and 5.

Data set [4] concerns rhythmic bladder contractions (micturition reflex). Put plainly: Inhibitory effect on rhythmic bladder contractions (micturition reflex). The format is in vivo, Female Std-Wistar rats. As to conditions: judged from Experiments 1, 3, 4 and 5.
Data set [5] concerns exploratory behavior. Briefly: Inhibitory effect on exploratory behavior. The format is in vivo, Male Std-Wistar rats. Conditions: 500 mg/kg p.o., rat; for Inhibitory rate, exploratory behavior: one hour after administration. The method, then: Inhibitory effect on exploratory behavior
Male Std-Wistar rats weighing 150-200 g were used in groups of 5 animals. One hour after oral administration of test compounds suspended in 0.5% aqueous tragacanth solution, animals were individually placed in a test cage (23×35×30 cm) on an Animex activity meter (Farad Co., Sweden). Immediately thereafter, locomotor counting was started and lasted for three minutes. The mean value of the exploratory behavior (count/3 minutes) in the test compound-treated groups were determined, and then inhibitory effect of each test compound was calculated as compared with that of the control group (0.5% aqueous tragacanth solution-treated group). The results are shown in Table 5 along with the results of Experiments 4 and 5.

Data set [6] has as its system rhythmic bladder contractions (micturition reflex). Put plainly: Inhibitory effect on rhythmic bladder contractions (micturition reflex). The format is in vivo, Female Std-Wistar rats. As to conditions: i.d., rat; for ED50: 2 h, two hours, read-out: ED50, inhibitory effect on contractile frequency; for Potency on frequency of rhythmic bladder contractions relative to inaperisone hydrochloride (Compound A): compared with Compound A. The method, then:
Inhibitory effect on rhythmic bladder contractions (micturition reflex)
The experiment was carried out according to the method of Maggi, C. […] It is generally accepted that the rhythmic bladder contractions evoked by instillation of saline solution into the bladder are mediated via the micturition reflex pathway like that of natural urination.
Female Std-Wistar rats weighing 160-190 g were used in groups of 3-4 animals. Under urethane anesthesia (1 g/kg, s.c.), both ureters were tied and cut at the side of kidney after a mid line incision of the abdomen. A cannula, connected to a syringe and a pressure transducer, was inserted into the bladder via the external urethral orifice and ligated around the proximal urethra. The animal was allowed to stay for about 30 minutes after the operation. The bladder was slowly filled with warm saline solution (0.4-1 ml) by means of a syringe until rhythmic contractions were induced. The change of the intravesical pressure was recorded on a recorder via a pressure transducer. After the rhythmic contractions became constant, test compounds dissolved or suspended in 0.5% aqueous tragacanth solution were administered via the cannula inserted for intraduodenal administration. The effect of each compound on the contractile frequency was investigated every 15 minutes till two hours after the administration.
The inhibitory rate on the contractile frequency (two hours) was expressed as the mean value of the inhibitory rates at an every 15-minute interval for two hours after the administration, which was determined based on the contractile frequency for 15 minutes before the administration.

Data set [7] deals with bladder contractions induced by stimulation of the pelvic nerve, central cut end. Put plainly: Effect on the bladder contractions induced by stimulation of the pelvic nerve (central cut end). Conditions: for Inhibitory rate on the contraction caused by the stimulation of the central cut end, 2 min. / Inhibitory rate on the contraction caused by the stimulation of the central cut end, 4 min. / Inhibitory rate on the contraction caused by the stimulation of the central cut end, 10 min. / Inhibitory rate on the contraction caused by the stimulation of the central cut end, 20 min.: 5 mg/kg i.v. (jugular vein), mean±SEM; for Inhibitory rate on the contraction caused by the stimulation of the central cut end, 2 min.: * p<0.05; for Inhibitory rate on the contraction caused by the stimulation of the central cut end, 4 min. / Inhibitory rate on the contraction caused by the stimulation of the central cut end, 20 min.: * p<0.05, ** <0.01; for Inhibitory rate on the contraction caused by the stimulation of the central cut end, 10 min.: ** <0.01; for Effect on contractions by stimulation of central cut end compared with peripheral cut end: 5 mg/kg i.v., rat. It counts as in vivo, Male Std-Wistar rats. From the text:
(§2) Effect on the bladder contractions induced by stimulation of the pelvic nerve
(§3) Male Std-Wistar rats weighing 250-350 g were used. Under urethane anesthesia (1 g/kg, i.p.), both ureters were tied and cut at the side of kidney after a mid line incision of the abdomen. When the peripheral end of the pelvic nerve was stimulated, one side of the pelvic nerve was cut. When the central cut end of the nerve was stimulated, one side of the pelvic nerve was cut like in the peripheral end stimulation after both the hypogastric nerves were cut. Then, the bladder was exposed, the cannula connected to a syringe and a pressure transducer was inserted into the bladder via a small incision at an apex of the dome, and the proximal urethra was then ligated. Fifteen minutes after the operation, warm saline solution of an amount (0.1-0.2 ml) being small enough not to cause rhythmic contraction was infused into the bladder using a syringe. The change of the intravesical pressure was recorded on a recorder via a pressure transducer. The pelvic nerve was stimulated at the peripheral cut end or the central one by a pair of platinum electrodes with pulse of 1 msec duration, 3 v strength and a frequency of 10 Hz (for peripheral) or 5 v strength and a frequency of 20 Hz (for central), for 5 seconds every 2 minutes. Test compounds dissolved in distilled water were injected at a dose of 5 mg/kg via the cannula inserted into the jugular vein.
(§4) Each value in the table is mean±standard error of mean in 3-4 animals.

The test system of data set [8] is bladder contractions induced by stimulation of the pelvic nerve, peripheral cut end. Briefly: Effect on the bladder contractions induced by stimulation of the pelvic nerve (peripheral cut end). It counts as in vivo, Male Std-Wistar rats. As to conditions: 5 mg/kg i.v. (jugular vein), mean±SEM; for Inhibitory rate on the contraction caused by the stimulation of the peripheral cut end, 10 min. / Inhibitory rate on the contraction caused by the stimulation of the peripheral cut end, 20 min.: * p<0.05.
Source text: as §2, §3, §4

Each structure is given as a SMILES string.

`Cc1cc2c(cc1C)CCC(CCN1CCCCC1)=C2` [Ex. 43, 1-[2-(3,4-dihydro-6,7-dimethyl-2-naphthalenyl)ethyl]piperidine]: the “Acute toxicity compared with Compound A” value in data set [1] is on record as “about twice lower than that of Compound A”. For the same molecule, in data set [2], the LD50 at 168 h turned out to be 1040 mg/kg. Further, in data set [3], the “Inhibitory effect on spinal reflex compared with Compound A” value is “nearly equal to that of Compound A” and the ED50 is 3.82 mg/kg. In addition, the “Separation of effect on micturition reflex from side effects (central depression, inhibition of spinal reflex) and toxicity, in comparison with Compound A” value in data set [4] is given as “extremely separated from side effects”. Moreover, in data set [5], the “Inhibitory rate, exploratory behavior” value was found to be 20.0% and the “Inhibitory effect on exploratory behavior compared with Compound A” value is “almost equal to that of Compound A”. For the same molecule, in data set [6], the ED50 worked out at 11.1 mg/kg and the “Potency on frequency of rhythmic bladder contractions relative to inaperisone hydrochloride (Compound A)” value is about 3 times more potent. For the same molecule, in data set [7], the “Inhibitory rate on the contraction caused by the stimulation of the central cut end, 2 min.” value (from here on “Inhibitory rate … of the central cut end, 2 min.”) came out at 6.0 ± 10.8%; the “Inhibitory rate on the contraction caused by the stimulation of the central cut end, 4 min.” value (shortened to “Inhibitory rate … of the central cut end, 4 min.”) is reported as 22.8 ± 9.7%; the “Inhibitory rate on the contraction caused by the stimulation of the central cut end, 10 min.” value is given as 28.3 ± 4.0%; the “Inhibitory rate on the contraction caused by the stimulation of the central cut end, 20 min.” value is 37.3 ± 5.0%. Also, the “Effect on contractions by stimulation of central cut end compared with peripheral cut end” value (“Effect … compared with peripheral cut end” below) in data set [7] was “more potent than those on the contractions induced by the stimulation of peripheral cut end”. In data set [8], the “Inhibitory rate on the contraction caused by the stimulation of the peripheral cut end, 2 min.” value came out at 2.4 ± 3.3%; the “Inhibitory rate on the contraction caused by the stimulation of the peripheral cut end, 4 min.” value is 5.8 ± 6.3%; the “Inhibitory rate on the contraction caused by the stimulation of the peripheral cut end, 10 min.” value is 6.3 ± 8.1%; the “Inhibitory rate on the contraction caused by the stimulation of the peripheral cut end, 20 min.” value was found to be 17.2 ± 12.2%.
Consider `Cc1cc2c(cc1C)CCC(CCN1CCCC1)=C2` [Ex. 2, 1-[2-(3,4-dihydro-6,7-dimethyl-2-naphthalenyl)ethyl]-pyrrolidine], for which the “Acute toxicity compared with Compound A” value in data set [1] was “also lower than that of Compound A”. Also, in data set [2], the LD50 at 168 h worked out at 620 mg/kg. In data set [3], the “Inhibitory effect on spinal reflex compared with Compound A” value was “much weaker than that of Compound A” and the ED50 was over 8 mg/kg. The “Separation of effect on micturition reflex from side effects (central depression, inhibition of spinal reflex) and toxicity, in comparison with Compound A” value in data set [4] is listed as “extremely separated from side effects”. In addition, in data set [5], the “Inhibitory rate, exploratory behavior” value was found to be 0% and the “Inhibitory effect on exploratory behavior compared with Compound A” value is listed as “less potent than that of Compound A”. In addition, in data set [6], the ED50 came out at 4.4 mg/kg, the “Effect on the amplitude of contraction” value is on record as “suppressed the amplitude of contraction” and the “Potency on frequency of rhythmic bladder contractions relative to inaperisone hydrochloride (Compound A)” value was “about 8 times more potent”. In data set [7], the “Inhibitory rate … of the central cut end, 2 min.” value amounted to 13.3 ± 5.1%; the “Inhibitory rate … of the central cut end, 4 min.” value was 17.7 ± 2.8%; the “Inhibitory rate on the contraction caused by the stimulation of the central cut end, 10 min.” value was determined as 25.6 ± 3.7%; the “Inhibitory rate on the contraction caused by the stimulation of the central cut end, 20 min.” value came out at 24.9 ± 4.1%. In addition, the “Effect … compared with peripheral cut end” value in data set [7] is reported as “more potent than those on the contractions induced by the stimulation of peripheral cut end”. Besides, in data set [8], the “Inhibitory rate on the contraction caused by the stimulation of the peripheral cut end, 2 min.” value came to 0.4 ± 5.2%; the “Inhibitory rate on the contraction caused by the stimulation of the peripheral cut end, 4 min.” value amounted to 16.3 ± 7.0%; the “Inhibitory rate on the contraction caused by the stimulation of the peripheral cut end, 10 min.” value was 13.7 ± 4.5%; the “Inhibitory rate on the contraction caused by the stimulation of the peripheral cut end, 20 min.” value is recorded as 19.0 ± 7.5%.
Consider `Fc1cccc2c1CCC(CCN1CCCC1)=C2` [Ex. 1, 1-[2-(5-fluoro-3,4-dihydro-2-naphthalenyl)ethyl]-pyrrolidine], for which, in data set [1], the “Acute toxicity compared with Compound A” value is recorded as “also lower than that of Compound A”. Besides, the LD50 at 168 h in data set [2] is 556 mg/kg. For the same molecule, in data set [3], the “Inhibitory effect on spinal reflex compared with Compound A” value is listed as “much weaker than that of Compound A” and the ED50 was over 10 mg/kg. In addition, the “Separation of effect on micturition reflex from side effects (central depression, inhibition of spinal reflex) and toxicity, in comparison with Compound A” value in data set [4] is recorded as “extremely separated from side effects”. Further, in data set [5], the “Inhibitory rate, exploratory behavior” value stood at 16.2% and the “Inhibitory effect on exploratory behavior compared with Compound A” value is recorded as “less potent than that of Compound A”. In data set [6], the ED50 came to 4.3 mg/kg and the “Potency on frequency of rhythmic bladder contractions relative to inaperisone hydrochloride (Compound A)” value is recorded as “about 8 times more potent”. Moreover, in data set [7], the “Inhibitory rate … of the central cut end, 2 min.” value was 26.3 ± 10.0%; the “Inhibitory rate … of the central cut end, 4 min.” value is recorded as 27.6 ± 5.6%; the “Inhibitory rate on the contraction caused by the stimulation of the central cut end, 10 min.” value is 36.8 ± 10.1%; the “Inhibitory rate on the contraction caused by the stimulation of the central cut end, 20 min.” value came out at 44.1 ± 5.8%. Moreover, the “Effect … compared with peripheral cut end” value in data set [7] was “more potent than those on the contractions induced by the stimulation of peripheral cut end”. In addition, in data set [8], the “Inhibitory rate on the contraction caused by the stimulation of the peripheral cut end, 2 min.” value came to 4.4 ± 4.4%; the “Inhibitory rate on the contraction caused by the stimulation of the peripheral cut end, 4 min.” value stood at 3.4 ± 4.4%; the “Inhibitory rate on the contraction caused by the stimulation of the peripheral cut end, 10 min.” value came to 3.2 ± 7.5%; the “Inhibitory rate on the contraction caused by the stimulation of the peripheral cut end, 20 min.” value was found to be 9.6 ± 8.6%.
